Measurements taken from patent US20260216347A1, “Substituted Imidazo-Based Compounds as Ligand Directed Degraders of IRAK3” (Celgene Corporation, priority 2022, published 2026).

Biological target: T1, IRAK3 (Homo sapiens, UniProt Q9Y616)
T1 construct: IRAK Endogenous HTRF Degradation Assay; endogenous in cells
T1 sequence (Q9Y616 1-596): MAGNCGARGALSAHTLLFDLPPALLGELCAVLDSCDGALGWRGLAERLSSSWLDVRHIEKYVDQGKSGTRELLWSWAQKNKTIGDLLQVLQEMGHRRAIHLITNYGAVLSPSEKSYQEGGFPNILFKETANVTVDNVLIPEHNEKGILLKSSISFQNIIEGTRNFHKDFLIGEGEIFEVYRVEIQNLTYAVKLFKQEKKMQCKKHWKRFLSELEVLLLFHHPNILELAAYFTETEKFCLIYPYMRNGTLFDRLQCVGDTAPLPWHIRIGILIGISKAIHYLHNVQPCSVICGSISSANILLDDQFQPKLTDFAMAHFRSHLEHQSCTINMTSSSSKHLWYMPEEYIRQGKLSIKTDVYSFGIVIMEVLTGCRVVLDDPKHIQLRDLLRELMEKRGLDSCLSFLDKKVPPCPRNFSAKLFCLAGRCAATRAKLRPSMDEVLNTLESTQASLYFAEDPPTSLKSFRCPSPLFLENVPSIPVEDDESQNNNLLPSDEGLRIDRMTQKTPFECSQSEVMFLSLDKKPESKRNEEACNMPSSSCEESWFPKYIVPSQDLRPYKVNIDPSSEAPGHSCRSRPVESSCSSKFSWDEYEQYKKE
Assay: IRAK3 biochemical binding assay (LanthaScreen Eu Kinase Binding, TR-FRET)
Protocol: Example B3. IRAK3 Biochemical Binding Assay
The LanthaScreen® Eu Kinase Binding assay was performed as described by the vendor (ThermoFisher Scientific Waltham, MA). Briefly, 100× solutions of compound were prepared in DMSO via serial dilution of the 10 mM stock solution in a 384-well reagent plate using 3-fold intervals to achieve final concentrations. 1 μL of the compound dilution series were added to the corresponding wells of a 384-well reagent plate containing 32.3 μL of 1× buffer (50 mM HEPES pH 7.4, […], 1 mM EGTA, 0.01% Brij-35). 5 μL of the buffer diluted compounds were transferred to the corresponding wells of a 384-well assay plate. 5 μL of 3× tracer was transferred to each well of the assay plate for a final tracer concentration of 10 nM. Finally, 5 μL of the 3×Eu-Anti-GST and IRAK3 mix was transferred to each well for a final concentration of 2 nM and 10 nM respectively. Reactions were allowed to incubate for 1 hour at room temperature. TR-FRET signal of the interaction (λex340/λem 665/λem 615) was read at room temperature with a delay time of 100 ρs and an integration time of 200 ρs using an Envision plate reader. Background corrected emission signal ratios at each compound concentration were used to calculate percentage of inhibition (% Inhibition). Plots of % Inhibition versus inhibitor concentrations were fit according to a dose-response equation (Eq. 1) to generate IC50 and Hill slope values using Dotmatics software (Dotmatics, Bishops Stortford, Hertfordshire, England).
Using these assays, IC50, Dmax, EC50, and DC50 values of the following compounds were determined. Dmax is defined as the maximum percent degradation achieved and DC50 is the concentration at which 50% degradation is achieved.

Row | Structure (SMILES) | IC50 [nM]
1 | CS(=O)(=O)c1cccc(-c2cnc(Nc3cnn(C4CCN(CCN5CCN(c6ccc(C7CCC(=O)NC7=O)cc6)CC5)CC4)c3)c3nccn23)c1 (stereo not drawn) [Compound 86, 3-(4-(4-(2-(4-(4-((5-(3-(methylsulfonyl)phenyl)imidazo[1,2-a]pyrazin-8-yl)amino)-1H-pyrazol-1-yl)piperidin-1-yl)ethyl)piperazin-1-yl)phenyl) piperidine-2,6-dione] | 380
2 | COc1ccc(-c2cnc(Nc3cnn(C4CCN(CCN5CCN(c6ccc(C7CCC(=O)NC7=O)cc6)CC5)CC4)c3)c3nccn23)cc1 (stereo not drawn) [Compound 87, 3-(4-(4-(2-(4-(4-((5-(4-methoxyphenyl)imidazo[1,2-a]pyrazin-8-yl)amino)-1H-pyrazol-1-yl)piperidin-1-yl)ethyl)piperazin-1-yl)phenyl) piperidine-2,6-dione] | 4
3 | O=C1CCC(c2ccc(N3CCN(CCN4CCC(n5cc(Nc6ncc(-c7ccccc7)n7ccnc67)cn5)CC4)CC3)cc2)C(=O)N1 (stereo not drawn) [Compound 88, 3-(4-(4-(2-(4-(4-((5-phenylimidazo[1,2-a]pyrazin-8-yl)amino)-1H-pyrazol-1-yl)piperidin-1-yl)ethyl)piperazin-1-yl)phenyl) piperidine-2,6-dione] | 16
4 | Cc1cc(-c2cnc(Nc3cnn([C@H]4CC[C@H](CCN5CCC(c6ccc(C7CCC(=O)NC7=O)cc6)CC5)CC4)c3)c3nccn23)c(F)cc1F (stereo partly drawn) [Compound 95, 3-(4-(1-(2-((trans)-4-(4-((5-(2,4-difluoro-5-methylphenyl)imidazo[1,2-a]pyrazin-8-yl)amino)-1H-pyrazol-1-yl)cyclohexyl)ethyl)piperidin-4-yl)phenyl) piperidine-2,6-dione] | 15
5 | Cc1cc(-c2cnc(Nc3cnn([C@H]4C[C@@H](CCN5CCN(c6ccc(C7CCC(=O)NC7=O)cc6)CC5)C4)c3)c3nccn23)c(F)cc1F (stereo partly drawn) [Compound 96, 3-(4-(4-(2-((cis)-3-(4-((5-(2,4-difluoro-5-methylphenyl)imidazo[1,2-a]pyrazin-8-yl)amino)-1H-pyrazol-1-yl)cyclobutyl)ethyl)piperazin-1-yl)phenyl)piperidine-2,6-dione] | 0.22
6 | Cc1cc(-c2cnc(Nc3cnn(C4CCN(CCN5CC6(C5)CN(c5ccc(C7CCC(=O)NC7=O)cc5)C6)CC4)c3)c3nccn23)c(F)cc1F (stereo not drawn) [Compound 97, 3-(4-(6-(2-(4-(4-((5-(2,4-difluoro-5-methylphenyl)imdazo [1,2-a]pyrazin-8-yl)amino)-1H-pyrazol-1-yl)piperidin-1-yl)ethyl)-2,6-diazaspiro[3.3]heptan-2-yl)phenyl) piperidine-2,6-dione] | 1.3
7 | CN1CCOc2cc(F)c(-c3cnc(Nc4cnn(C5CCN(CCN6CCN(c7ccc(C8CCC(=O)NC8=O)cc7)CC6)CC5)c4)c4nccn34)cc21 (stereo not drawn) [Compound 98, 3-(4-(4-(2-(4-(4-((5-(7-fluoro-4-methyl-3,4-dihydro-2H-benzo[b][1,4]oxazin-6-yl)imidazo[1,2-a]pyrazin-8-yl)amino)-1H-pyrazol-1-yl)piperidin-1-yl)ethyl)piperazin-1-yl)phenyl) piperidine-2,6-dione] | 0.08
8 | Cc1cc(-c2cnc(Nc3cnn([C@H]4C[C@H](CN5CCN(c6ccc(C7CCC(=O)NC7=O)cc6)CC5)C4)c3)c3nccn23)c(F)cc1F (stereo partly drawn) [Compound 99] | 0.44
9 | O=C1CCC(c2ccc(N3CCN(CC[C@H]4CC[C@H](n5cc(Nc6ncc(C78CCCC7C8)n7ccnc67)cn5)CC4)CC3)cc2)C(=O)N1 (stereo partly drawn) [Compound 100] | 4
10 | Cc1cc(-c2cnc(Nc3cnn([C@H]4CC[C@@H](CCN5CC6(C5)CN(c5ccc(C7CCC(=O)NC7=O)cc5)C6)CC4)c3)c3nccn23)c(F)cc1F (stereo partly drawn) [Compound 101] | 7.6
11 | Cc1cc(-c2cnc(Nc3cnn(C4CCN(CCN5CCN(c6ccc(-n7ccc(=O)[nH]c7=O)cc6)CC5)CC4)c3)c3nccn23)c(F)cc1F [Compound 102, 1-(4-(4-(2-(4-(4-((5-(2,4-difluoro-5-methylphenyl)imdazo [1,2-a]pyrazin-8-yl)amino)-1H-pyrazol-1-yl)piperidin-1-yl)ethyl)piperazin-1-yl)phenyl)pyrimidine-2,4(1H,3H)-dione] | 0.8
12 | Cc1cc(-c2ccc(Nc3cnn([C@H]4CC[C@@H](CCN5CCN(c6ccc(C7CCC(=O)NC7=O)cc6)CC5)CC4)c3)c3nccn23)c(F)cc1F (stereo partly drawn) [Compound 103] | 2
13 | Cc1cc(-c2cnc(Nc3cnn([C@H]4CC[C@H](CCN5CC6(C5)CN(c5ccc(C7CCC(=O)NC7=O)cc5)C6)CC4)c3)c3nccn23)c(F)cc1F (stereo partly drawn) [Compound 104] | 0.3
14 | Cc1cc(-c2cnc(Nc3cnn([C@H]4CC[C@H](CCN5CCN(c6ccc7c(C8CCC(=O)NC8=O)nn(C)c7c6)CC5)CC4)c3)c3nccn23)c(F)cc1F (stereo partly drawn) [Compound 105, 3-(6-(4-(2-((trans)-4-(4-((5-(2,4-difluoro-5-methylphenyl)imidazo[1,2-a]pyrazin-8-yl)amino)-1H-pyrazol-1-yl)cyclohexyl)ethyl)piperazin-1-yl)-1-methyl-1H-indazol-3-yl)piperidine-2,6-dione] | 0.18
15 | Cc1cc(-c2ccc(Nc3cnn([C@H]4CC[C@H](CCN5CCN(c6ccc(C7CCC(=O)NC7=O)cc6)CC5)CC4)c3)c3nccn23)c(F)cc1F (stereo partly drawn) [Compound 108] | 2.6
16 | Cc1cc(-c2cnc(Nc3cnn(C4CCN(CCN5CCC(n6cc(C7CCC(=O)NC7=O)cn6)CC5)CC4)c3)c3nccn23)c(F)cc1F (stereo not drawn) [Compound 109, 3-(1-(1-(2-(4-(4-((5-(2,4-difluoro-5-methylphenyl)imdazo [1,2-a]pyrazin-8-yl)amino)-1H-pyrazol-1-yl)piperidin-1-yl)ethyl)piperidin-4-yl)-1H-pyrazol-4-yl)piperidine-2,6-dione] | 0.26
17 | Cc1cc(-c2cnc(Nc3cnn(C4CCN(CCN5CCN(c6ccc(-n7cc(F)c(=O)[nH]c7=O)cc6)CC5)CC4)c3)c3nccn23)c(F)cc1F [Compound 110, 1-(4-(4-(2-(4-(4-((5-(2,4-difluoro-5-methylphenyl)imdazo [1,2-a]pyrazin-8-yl)amino)-1H-pyrazol-1-yl)piperidin-1-yl)ethyl)piperazin-1-yl)phenyl)-5-fluoropyrimidine-2,4(1H,3H)-dione] | 0.86
18 | Cn1nc(C2CCC(=O)NC2=O)c2cccc(N3CCN(CCN4CCC(n5cc(Nc6ncc(C7CC7)n7ccnc67)cn5)CC4)CC3)c21 (stereo not drawn) [Compound 113, 3-(7-(4-(2-(4-(4-((5-cyclopropylimidazo[1,2-a]pyrazin-8-yl)amino)-1H-pyrazol-1-yl)piperidin-1-yl)ethyl)piperazin-1-yl)-1-methyl-1H-indazol-3-yl)piperidine-2,6-dione] | 3.2
19 | O=C1CCC(c2ccc(N3CCN(CCN4CCC(n5cc(Nc6ncc(-c7cnn8c7CCCC8)n7ccnc67)cn5)CC4)CC3)cc2)C(=O)N1 (stereo not drawn) [Compound 114, 3-(4-(4-(2-(4-(4-((5-(4,5,6,7-tetrahydropyrazolo[1,5-a]pyridin-3-yl)imidazo[1,2-a]pyrazin-8-y1)amino)-1H-pyrazol-1-yl)piperidin-1-yl)ethyl)piperazin-1-y1)phenyl)piperidine-2,6-dione] | 0.92
20 | Cn1nc(C2CCC(=O)NC2=O)c2ccc(N3CCN(CCN4CCC(n5cc(Nc6ncc(C7CC7)n7ccnc67)cn5)CC4)CC3)cc21 (stereo not drawn) [Compound 115, 3-(6-(4-(2-(4-(4-((5-cyclopropylimidazo[1,2-a]pyrazin-8-yl)amino)-1H-pyrazol-1-yl)piperidin-1-yl)ethyl)piperazin-1-yl)-1-methyl-1H-indazol-3-yl)piperidine-2,6-dione] | 25
21 | Cc1cc(-c2cnc(Nc3cnn(C4CCN(CCN5CCC(n6cc(N7CCC(=O)NC7=O)cn6)CC5)CC4)c3)c3nccn23)c(F)cc1F [Compound 116, 1-(1-(1-(2-(4-(4-((5-(2,4-difluoro-5-methylphenyl)imdazo [1,2-a]pyrazin-8-yl)amino)-1H-pyrazol-1-yl)piperidin-1-yl)ethyl)piperidin-4-yl)-1H-pyrazol-4-yl) dihydropyrimidine-2,4(1H,3H)-dione] | 0.12
